{"source": "patent US20060190192A1", "about": "“Databases for assessing nucleic acids” (Medical College of Ohio, priority 2005, published 2006)", "key": {"[1]": {"system": "cytochrome p450 (CYP) IAI gene", "test": "Northern analysis of CYPIAI gene expression in β-napthoflavone-exposed BEP2D cells", "format": "cell-based, human", "details": "β-napthoflavone 10 μM vs 0.1% DMSO control, 32P-labeled CYPIAI cDNA probe", "protocol": "(§1) In a second set of experiments, multiplex competitive reverse transcriptase polymerase chain reaction (MC RT-PCR) with competitive templates were prepared by the Celi method to evaluate the cytochrome p450 (CYP) IAI gene in β-napthoflavone-exposed BEP2D cells. The induction of CYPIAI gene expression was evaluated using both MC RT-PCR with Celi competitive templates, and Northern analysis. Competitive templates were prepared for both the CYPIAI and GAPDH genes. The primers used to prepare the competitive template for GAPDH were: […]\nRNA from BEP2D cells incubated for varying times with β-napthoflavone (10 μM) was either electrophoresed on a 1% LE formaldehyde denaturing gel for Northern analysis or MC RT-PCR amplified, as described above. For Northern analysis, following transfer of the RNA to GeneScreen, the filters were hybridized with ^32P-labeled CYPIAI cDNA.\nFIG. 36A illustrates Northern analysis of RNA obtained from BEP2D cells that were treated with 0.1% DMSO as a control, or, β-napthoflavone in an effort to induce cytochrome p450 IA1 (CYPIA1). FIG. 36B illustrates DNA PCR-amplified from serial dilutions of cDNA from the same cells used in FIG. 36SA. The cDNA was co-amplified in the presence of competitive templates for GAPDH and CYPIAI, according to some embodiments of the instant invention."}, "[2]": {"system": "cytochrome p450 (CYP) IAI gene", "test": "MC RT-PCR with Celi competitive templates: induction of CYPIAI gene expression in β-napthoflavone-exposed BEP2D cells", "format": "cell-based, human", "details": "β-napthoflavone 10 μM, control 0.1% DMSO, cDNA loading matched by GAPDH native/competitive template bands", "protocol": "as §1\nThe PCR amplification conditions were the same as described for experiments using the competitive templates prepared for GAPDH and GSHPx by the Higuchi method except the annealing temperature was 55 degrees centigrade and the amplification was carried out for 38 cycles.\nBecause the native and competitive templates separate without prior restriction endonuclease digestion, samples were taken directly from the PCR reaction tube and applied to ethidium bromide stained 3% Nusieve, 1% LE agarose gels. It was then possible to quantify the products by taking a negative photograph of the gel using Polaroid 665 positive/negative instant film, subjecting the negative photograph to densitometry. […]"}}}
{"smiles": "O=c1cc(-c2ccccc2)oc2ccc3ccccc3c12", "note": "[β-napthoflavone]", "values": [{"measurement": "gene expression of the CYPIAI gene", "setting": "[1]", "value": "increase"}, {"measurement": "band representing the native CYPIAI gene, exposed cells compared to control cells", "setting": "[2]", "value": "much more strongly represented"}]}
